“And” between values parts separate entries of the source, which are not always exact repeats. Identical values can stand only once. Results filed as inconclusive are left out.

These results are taken from PubChem BioAssay AID206 (DTP/NCI, 2004).

The assay has as its system nude mice, HT29 intrarenal xenograft, tumor weight T/C. Put plainly: NCI In Vivo Anticancer Drug Screen. Data for tumor model HT29;CX-1 Human Adenocarcinoma (MER+) (intrarenal inoculation) in NU/NU Swiss (nude) mice. The following applies: endpoint: mean tumor weight change, higher = larger tumour. The essentials:
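Tumor-bearing mice received test compound or vehicle, and tumor size or survival was recorded. Values are the treated-group measurement divided by the vehicle-treated control measurement.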

[1] abbreviates: dose: 75.0 mg/kg/injection, schedule: Q04DX004 (sc), vehicle: saline with Tween-80.
The mark [2] stands for this setting: dose: 150.0 mg/kg/injection, schedule: Q04DX004 (sc), vehicle: saline with Tween-80.
[3] abbreviates: dose: 300.0 mg/kg/injection, schedule: Q04DX004 (sc), vehicle: saline with Tween-80.
[4] abbreviates: dose: 150.0 mg/kg/injection, schedule: Q04DX004 (sc), vehicle: Klucel (hydroxypropylcellulose) (HPC).
Where [5] appears, read: dose: 600.0 mg/kg/injection, schedule: Q04DX004 (sc), vehicle: Klucel (hydroxypropylcellulose) (HPC).
Setting [6] is: dose: 1200.0 mg/kg/injection, schedule: Q04DX004 (sc), vehicle: Klucel (hydroxypropylcellulose) (HPC).
[7] abbreviates: dose: 10.0 mg/kg/injection, schedule: Q04DX004 (sc), vehicle: saline.

Take `Cc1cc(=O)n2c3c(c4c(cc13)c(CN(C)C)cc(=O)n4C)OC2`: the T/C under setting [1] is 117 % of control and the T/C under setting [2] was 57 % of control.
Turning to `OC1CCCC2CCCNC12` (stereo not drawn), the T/C is 85 % of control (dose: 37.5 mg/kg/injection, schedule: Q04DX004 (sc), vehicle: saline with Tween-80); 77 % of control under setting [1]; 83 % of control under setting [2].
Consider `O=C1CN(CN2CCOCC2)C(=O)CN1CN1CCOCC1`, for which the T/C is, setting by setting: (dose: 25.0 mg/kg/injection, schedule: Q01DX010 (sc), vehicle: suspension in saline) 53 % of control; (dose: 50.0 mg/kg/injection, schedule: Q01DX010 (sc), vehicle: suspension in saline) 122 % of control; (dose: 100.0 mg/kg/injection, schedule: Q01DX010 (sc), vehicle: suspension in saline) 114 % of control; (dose: 200.0 mg/kg/injection, schedule: Q01DX010 (sc), vehicle: suspension in saline) 69 % of control.
With `CC(=S)NC(O)C(=O)c1ccccc1` (stereo not drawn), the T/C under setting [3] was 116 % of control.
Regarding `COC(=O)Nc1cn2cc(C(=O)c3cccs3)ccc2n1`, the T/C is 91 % of control (dose: 75.0 mg/kg/injection, schedule: Q04DX004 (sc), vehicle: Klucel (hydroxypropylcellulose) (HPC)); 65 % of control under setting [4]; 50 % of control (dose: 300.0 mg/kg/injection, schedule: Q04DX004 (sc), vehicle: Klucel (hydroxypropylcellulose) (HPC)); 54 % of control and 76 % of control under setting [5]; 67 % of control under setting [6]; 36 % of control (dose: 2400.0 mg/kg/injection, schedule: Q04DX004 (sc), vehicle: Klucel (hydroxypropylcellulose) (HPC)).
Consider `Nc1nc(=S)c2[nH]cnc2[nH]1`, for which the T/C was 102 % of control (dose: 0.39 mg/kg/injection, schedule: Q01DX010 (sc), vehicle: Klucel (hydroxypropylcellulose) (HPC)) and 91 % of control (dose: 0.78 mg/kg/injection, schedule: Q01DX010 (sc), vehicle: Klucel (hydroxypropylcellulose) (HPC)).
Consider `CC1(C)CC23C4COC(=O)C2CCC1C3CC4=O` (stereo not drawn), for which the T/C reads like this: (dose: 25.0 mg/kg/injection, schedule: Q04DX004 (sc), vehicle: DMSO) 56 % of control; (dose: 50.0 mg/kg/injection, schedule: Q04DX004 (sc), vehicle: DMSO) 106 % of control; (dose: 100.0 mg/kg/injection, schedule: Q04DX004 (sc), vehicle: DMSO) 103 % of control; (dose: 300.0 mg/kg/injection, schedule: Q04DX004 (sc), vehicle: DMSO) 56 % of control; (dose: 600.0 mg/kg/injection, schedule: Q04DX004 (sc), vehicle: DMSO) 64 % of control; (dose: 1200.0 mg/kg/injection, schedule: Q04DX004 (sc), vehicle: DMSO) 88 % of control. For the same compound, under “dose: 2400.0 mg/kg/injection, schedule: Q04DX004 (sc), vehicle: DMSO”, the T/C is 114 % of control.
Regarding `NC(=O)c1[nH]nc(C2OC(CO)C(O)C2O)c1O` (stereo not drawn), under setting [7], the T/C was 73 % of control.
Turning to `Cc1noc(N)c1N`, the T/C reads like this: (dose: 100.0 mg/kg/injection, schedule: Q04DX004 (sc), vehicle: water) 200 % of control; (dose: 400.0 mg/kg/injection, schedule: Q04DX004 (sc), vehicle: water) 98 % of control; (dose: 800.0 mg/kg/injection, schedule: Q04DX004 (sc), vehicle: water) 200 % of control.
On to `O=C(Nc1ccc(N=C=S)cc1Cl)c1cc(Cl)cc(Cl)c1O`, for which the T/C is 123 % of control (dose: 25.0 mg/kg/injection, schedule: Q04DX004 (sc), vehicle: Klucel (hydroxypropylcellulose) (HPC)); 102 % of control (dose: 50.0 mg/kg/injection, schedule: Q04DX004 (sc), vehicle: Klucel (hydroxypropylcellulose) (HPC)); 56 % of control (dose: 200.0 mg/kg/injection, schedule: Q04DX004 (sc), vehicle: Klucel (hydroxypropylcellulose) (HPC)).
Consider `O=NN(CCCl)C(=O)NC1[C@H](O)CCC[C@@H]1O` (stereo partly drawn), for which the T/C under setting [7] was 90 % of control.
Regarding `C=C1C(=O)OC2CC(C)C3C4OC4C(O)C3(C)C(O)C12` (stereo not drawn), the T/C by setting is: (dose: 50.0 mg/kg/injection, schedule: Q04DX004 (sc), vehicle: saline with Tween-80) 99 % of control; (dose: 100.0 mg/kg/injection, schedule: Q04DX004 (sc), vehicle: saline with Tween-80) 121 % of control; (dose: 200.0 mg/kg/injection, schedule: Q04DX004 (sc), vehicle: saline with Tween-80) 107 % of control.
As to `C1CN2CN3CCN(CN1C3)C2`, the T/C is, setting by setting: (dose: 100.0 mg/kg/injection, schedule: Q01DX010 (sc), vehicle: saline) 93 % of control; (dose: 200.0 mg/kg/injection, schedule: Q01DX010 (sc), vehicle: saline) 95 % of control.
For the compound `CN1C(=O)NC(c2ccc(Cl)cc2)(c2ccc(Cl)cc2)C1=O`, the T/C (dose: 50.0 mg/kg/injection, schedule: Q01DX010 (sc), vehicle: saline with Tween-80) was 97 % of control; the T/C (dose: 100.0 mg/kg/injection, schedule: Q01DX010 (sc), vehicle: saline with Tween-80) was 109 % of control; the T/C (dose: 400.0 mg/kg/injection, schedule: Q01DX010 (sc), vehicle: saline with Tween-80) is 43 % of control.
As for `O=[N+]([O-])c1ccc(Sc2ccncn2)c([N+](=O)[O-])c1`, the T/C under setting [2] was 44 % of control; the T/C under setting [3] was 85 % of control; the T/C (dose: 600.0 mg/kg/injection, schedule: Q04DX004 (sc), vehicle: saline with Tween-80) was 85 % of control and 100 % of control; the T/C (dose: 1200.0 mg/kg/injection, schedule: Q04DX004 (sc), vehicle: saline with Tween-80) was 73 % of control; the T/C (dose: 2400.0 mg/kg/injection, schedule: Q04DX004 (sc), vehicle: saline with Tween-80) was 86 % of control.
On to `Oc1c(Cl)cc(Cl)cc1C1N2CCCCC2C2c3cccn3-c3ccccc3N21` (stereo not drawn), for which, under setting [6], the T/C is 111 % of control.
For the compound `CC1(C)OCC(CO)(Nc2nc(N3CC3)nc(N3CC3)n2)CO1`, the T/C (dose: 2.0 mg/kg/injection, schedule: Q04DX004 (sc), vehicle: saline) is 76 % of control.
For `O=c1oc2c(O)c(O)cc3c(=O)oc4c(O)c(O)cc1c4c23`, the T/C is, setting by setting: under setting [4], 93 % of control; under setting [5], 161 % of control; under setting [6], 201 % of control.
Take `CC1=C2CC(C)(C)/C=C\C(=O)/C(C)=C\C3=C[C@H](C)C[C@]3(O2)C1=O`: the T/C (dose: 50.0 mg/kg/injection, schedule: Q01DX010 (sc), vehicle: Klucel (hydroxypropylcellulose) (HPC)) was 49 % of control.
As to `Nc1ncnc2c(C3OC(CO)C(O)C3O)[nH]nc12` (stereo not drawn), the T/C (dose: 75.0 mg/kg/injection, schedule: Q04DX004 (sc), vehicle: suspension in saline) is 39 % of control.
Take `COC(=O)C(N)Cc1ccc(O)c(O)c1` (stereo not drawn): the T/C is 74 % of control (dose: 225.0 mg/kg/injection, schedule: Q04DX004 (sc), vehicle: saline); 104 % of control (dose: 450.0 mg/kg/injection, schedule: Q04DX004 (sc), vehicle: saline); 77 % of control (dose: 900.0 mg/kg/injection, schedule: Q04DX004 (sc), vehicle: saline); 55 % of control (dose: 1800.0 mg/kg/injection, schedule: Q04DX004 (sc), vehicle: saline).
Turning to `CC1(C)N=C(N)N=C(N)N1c1ccc(F)c(C(F)(F)F)c1`, the T/C by setting is: (dose: 3.12 mg/kg/injection, schedule: Q01DX010 (sc), vehicle: saline) 103 % of control; (dose: 6.25 mg/kg/injection, schedule: Q01DX010 (sc), vehicle: saline) 84 % of control; (dose: 12.5 mg/kg/injection, schedule: Q01DX010 (sc), vehicle: saline) 49 % of control; (dose: 25.0 mg/kg/injection, schedule: Q01DX010 (sc), vehicle: saline) 124 % of control.
Regarding `CO[C@H]1C[C@](C)(O)Cc2cc3c(c(O)c21)C(=O)c1c(O)cc2c(c1C3=O)O[C@@H]1O[C@@]2(C)[C@H](O)[C@@H](N(C)C)[C@@H]1O`, the T/C (dose: 50.0 mg/kg/injection, schedule: Q04DX004 (sc), vehicle: other) was 99 % of control.
In the case of `O=C(O)C1(C(=O)O)CCC1.[NH2-].[NH2-].[Pt+2]`, the T/C is 66 % of control and 91 % of control (dose: 25.0 mg/kg/injection, schedule: Q01DX010 (sc), vehicle: dextrose); 17 % of control (dose: 50.0 mg/kg/injection, schedule: Q01DX010 (sc), vehicle: dextrose).
Take `CCNC(=O)[B-][N+](C)(C)C`: the T/C is 94 % of control (dose: 100.0 mg/kg/injection, schedule: Q04DX004 (sc), vehicle: saline); 60 % of control (dose: 200.0 mg/kg/injection, schedule: Q04DX004 (sc), vehicle: saline); 43 % of control (dose: 400.0 mg/kg/injection, schedule: Q04DX004 (sc), vehicle: saline).
On to `Clc1ccc(C2SC=Cc3ccccc32)cc1` (stereo not drawn), for which the T/C under setting [5] was 48 % of control.
